US20250135009A1, “INTRATYMPANIC DRUG CONTROLLED RELEASE-TYPE FORMULATION COMPRISING N-ACYLATED GLYCOL CHITOSAN” (The Industry & Academic Cooperation in Chungnam National …, priority 2021, published 2025)
Values after ≈ are worked out from the molar mass of the structure shown.

Legend:
physchem = test: physchem
Protocol: Changes in water solubility of dexamethasone (DEX) with changes in HGC concentration were analyzed. An excessive amount of DEX was added to 3 mL of an aqueous solution of HGC (PBS, HGC concentration=0 to 4%, w/v). The samples were then stirred for 30 minutes and incubated in a shaking water bath (100 rpm, 37° C.) for 24 hours. All the samples were filtered through a syringe filter (0.8 μm) to remove precipitates and then analyzed using a UV-visible spectrophotometer (V-730, JASCO, Korea). The solubility value of DEX was determined using a standard curve of various DEX concentrations obtained at 242 nm. The test was repeated three times.

[1] = In vitro drug release in PBS using a dialysis membrane; type: physicochemical; settings: HGC 3.0 wt %, drug 2.0 wt % formulations and drug controls
Protocol: The in vitro drug release profiles of the thermogel formulations were examined in PBS (pH 7.4) using a dialysis membrane. […] Then, the dialysis bags were immersed in 50 mL of PBS and incubated in a shaking water bath (SI-600R, Jeio Tech, Seoul, Korea) at 37° C. and 100 rpm or less.
After incubation, 10 ml of the release medium was taken out and the same amount of fresh medium was added again. The collected samples were analyzed by UV-Vis measurement. The DEX release profile was determined by measuring the UV absorbance of DEX at 242 nm. The experiment was performed in triplicate and data are expressed as mean±SD.
023 microspheres loaded with dexamethasone were mixed with 4 wt % of HGC hydrogel. An in vitro drug release test was conducted in a PBS (pH 7.4, 50 ml) environment in the same manner as in Example 4. Sampling was performed at days 0, 0.5, 1, 2, 4, 7, 14, 21, 28, and 30.
Dexamethasone-loaded 061 or 062 microspheres were mixed with 4 wt % of HGC hydrogel, and an in vitro drug release test therefor was conducted in the same manner as the test for the 023.

| Compound | increase of solubility of dexamethasone (physchem) | solubility at 24 h (physchem; 37 °C, aqueous with cosolvent or surfactant or cyclodextrin, thermodynamic from solid) [µg/mL] | solubility of dexamethasone in PBS (physchem; HGC 0 wt %, 37° C., 24 hours) [µg/mL] | drug release behavior (Example 8-2) [1] |
| --- | --- | --- | --- | --- |
| C[C@@H]1C[C@H]2[C@@H]3CCC4=CC(=O)C=C[C@]4(C)[C@@]3(F)[C@@H](O)C[C@]2(C)[C@@]1(O)C(=O)CO [DEX, Dexamethasone] | about 4 times | 221 (≈ 563 µM) | 64 |  |
| C[C@@H]1C[C@H]2[C@@H]3CCC4=CC(=O)C=C[C@]4(C)[C@@]3(F)[C@@H](O)C[C@]2(C)[C@@]1(O)C(=O)COP(=O)([O-])[O-].[Na+].[Na+] [DSP, DEX phosphate disodium salt] |  |  |  | completely released the drug quickly within a few hours |
